Experiment [1] has as its system transplant rejection. The following applies: cited from earlier work.
For experiment [2], the system named is Candida albicans 3669. The experiment in a line: Antifungal plate test, inhibition of Candida albicans 3669. The following applies: strain 3669; for MIC: Candida albicans, read-out: MIC to inhibit growth. It is filed as cell-based. The procedure:
(§1) The following represents the typical procedure used. Compound to be tested was placed on sterile dried 1/4" plate disks, and allowed to dry. Agar plates were seeded with fungi and allowed to solidify. The impregnated disks were placed on the seeded Agar surface and incubated for the time required for the particular culture. Results are expressed in MIC (μg/ml) to inhibit growth.

The subject of experiment [3] is Candida albicans ATCC 10231. The experiment in a line: Antifungal plate test, inhibition of Candida albicans ATCC 10231. It is filed as cell-based. The following applies: for MIC: Candida albicans, ATCC10231, read-out: MIC to inhibit growth. The method, then:
as §1

In experiment [4] the test system is Candida albicans ATCC 38246. The experiment in a line: Antifungal plate test, inhibition of Candida albicans ATCC 38246. It is filed as cell-based. The following applies: for MIC: Candida albicans, ATCC38246, read-out: MIC to inhibit growth. The method, then:
as §1

In experiment [5] the test system is Candida albicans ATCC 38248. Kind of experiment: Antifungal plate test, inhibition of Candida albicans ATCC 38248. It is filed as cell-based. Conditions: for MIC: Candida albicans, ATCC38248, read-out: MIC to inhibit growth. The procedure: as §1
The test system of experiment [6] is cells from the thymus of normal BALB/c mice. The experiment in a line: Comitogen-induced thymocyte proliferation procedure (LAF). It is filed as cell-based. Conditions: in vitro, rapamycin 1.0, 72 hours culture with PHA and IL-1. The procedure: (§2) Immunosuppressive activity was evaluated in an in vitro standard pharmacological test procedure to measure lymphocyte proliferation (LAF) and in two in vivo standard pharmacological test procedures. The first in vivo procedure was a popliteal lymph node (PLN) test procedure which measured the effect of compounds of this invention on a mixed lymphocyte reaction and the second in vivo procedure evaluated the survival time of a pinch skin graft.
Briefly, cells from the thymus of normal BALB/c mice are cultured for 72 hours with PHA and IL-1 and pulsed with tritiated thymidine during the last six hours. […] Cells are harvested and incorporated; radioactivity is determined. Inhibition of lymphoproliferation is assessed in percent change in counts per minute from non-drug treated controls. The results are expressed by the following ratio: [formula]

In experiment [7] the test system is Candida albicans ATCC 38247. The experiment in a line: Antifungal plate test, inhibition of Candida albicans ATCC 38247. Conditions: for MIC: Candida albicans, ATCC38247, read-out: MIC to inhibit growth. It is filed as cell-based. The method, then:
as §1

Experiment [8] concerns pinch skin graft from male DBA/2 donors. The experiment in a line: Survival time of pinch skin graft. The following applies: intraperitoneally; mean ± S.D. It is filed as in vivo, male BALB/c mice (recipients). The procedure: as §2
The second in vivo test procedure is designed to determine the survival time of pinch skin graft from male DBA/2 donors transplanted to male BALB/c recipients. The method is adapted from Billingham R. E. and Medawar P. B., J. Exp. Biol. 28:385-402, (1951). Briefly, a pinch skin graft from the donor is grafted on the dorsum of the recipient as a homograft, and an autograft is used as control in the same region. […] Untreated recipients serve as rejection control. The graft is monitored daily and observations are recorded until the graft becomes dry and forms a blackened scab. This is considered as the rejection day. The mean graft survival time (number of days±S.D.) of the drug treatment group is compared with the control group.

Experiment [9] relates to Candida albicans. Conditions: in vitro and in vivo; cited from earlier work.
The test system of experiment [10] is mixed lymphocyte reaction in popliteal lymph node. Kind of experiment: In vivo popliteal lymph node (PLN) test procedure. Details: species or system C3H mice (BALB/c donors). The following applies: for PLN Assay (ratio): in vivo, rapamycin 1.0, p.o. daily Day 0 to Day 4. The method, then:
as §2
A mixed lymphocyte reaction (MLR) occurs when lymphoid cells from genetically distinct animals are combined in tissue culture. Each stimulates the other to undergo blast transformation which results in increased DNA synthesis that can be quantified by the incorporation of tritiated thymidine. Since stimulating a MLR is a function of disparity at Major Histocompatibility antigens, an in vivo popliteal lymph node (PLN) test procedure closely correlates to host vs. graft disease. Briefly, irradiated spleen cells from BALB/c donors are injected into the right hind foot pad of recipient C3H mice. The drug is given daily, p.o. from Day 0 to Day 4. On Day 3 and Day 4, tritiated thymidine is given i.p., b.i.d. On Day 5, the hind popliteal lymph nodes are removed and dissolved, and radioactivity counted. The corresponding left PLN serves as the control for the PLN from the injected hind foot. Percent suppression is calculated using the non-drug treated animals as allogenic control. […] Results are expressed by the following ratio: [formula]

The subject of experiment [11] is multiple sclerosis. Conditions: in vivo; cited from earlier work.
The subject of experiment [12] is IgE-like antibodies. The following applies: in vivo; cited from earlier work.
For experiment [13] the following is noted: alone or in combination with picibanil; cited from earlier work.

Results on 4 compounds are retold here after patent US5023262A, “Hydrogenated rapamycin derivatives” (American Home Products Corporation, priority 1990, dated 1991).

In brackets after ≈: the same amount, converted by molar mass.

Broadly, the MIC is the least concentration at which growth counts as inhibited.

Consider `C=CC[C@@H]1/C=C(\C)C[C@H](C)C[C@H](OC)[C@H]2O[C@@](O)(C(=O)C(=O)N3CCCC[C@H]3C(=O)O[C@H](/C(C)=C/[C@@H]3CC[C@@H](O)[C@H](OC)C3)[C@H](C)[C@@H](O)CC1=O)[C@H](C)C[C@@H]2OC` [FK-506], for which the “inhibition of transplant rejection / immunosuppressive effect” value in experiment [1] was “effective as immunosuppressive agents”.

For 1,2,3,4-Tetrahydrorapamycin [Example 2], the “MIC to inhibit growth” value came to 0.0125 µg/mL in experiment [2]; 0.006 µg/mL in experiment [3]; 0.05 µg/mL in [4]; 0.0125 µg/mL in [5]; 0.006 µg/mL in experiment [7]. Also, the “LAF Assay (ratio)” value in [6] was 0.036. The “Skin Graft Assay (days + SD), mean graft survival time” value (from here on “Skin Graft Assay (days + SD)”) in experiment [8] is on record as 7.0 ± 0.9 days.

In the case of `CO[C@H]1C[C@@H]2CC[C@@H](C)[C@@](O)(O2)C(=O)C(=O)N2CCCC[C@H]2C(=O)O[C@H]([C@H](C)C[C@@H]2CC[C@@H](O)[C@H](OC)C2)CC(=O)[C@H](C)/C=C(\C)[C@@H](O)[C@@H](OC)C(=O)[C@H](C)C[C@H](C)/C=C/C=C/C=C/1C` [Rapamycin, rapamycin], the MIC amounted to 0.025 µg/mL (≈ 0.0273 µM) in [2]; 0.003 µg/mL (≈ 0.00328 µM) in experiment [3]; 0.025 µg/mL (≈ 0.0273 µM) in experiment [4]; 0.006 µg/mL (≈ 0.00656 µM) in [5]; 0.003 µg/mL (≈ 0.00328 µM) in experiment [7]. Further, in experiment [9], the antifungal activity entry is “antifungal activity, particularly against Candida albicans, both in vitro and in vivo”. In addition, in [10] (6 mg/kg, p.o.), the “Percent suppression (PLN)” value was 86%. In experiment [10], the “PLN Assay (ratio)” value came out at 1.0. Further, the “effect in experimental allergic encephalomyelitis model” value in experiment [11] was “effective in the experimental allergic encephalomyelitis model”. In [12], the “inhibition of formation of IgE-like antibodies” value was “effectively inhibited the formation of IgE-like antibodies”. Moreover, in experiment [1], the “inhibition of transplant rejection / immunosuppressive effect” value was “effective in inhibiting transplant rejection”. For the same compound, in [13], the antitumor activity result is recorded as “antitumor activity”. Besides, the “Skin Graft Assay (days + SD)” value in experiment [8] is on record as 12.0 ± 1.7 days.

For the compound `CO[C@H]1C[C@@H]2CC[C@@H](C)[C@@](O)(O2)C(=O)C(=O)N2CCCC[C@H]2C(=O)O[C@H]([C@H](C)C[C@@H]2CC[C@@H](O)[C@H](OC)C2)CC(=O)[C@H](C)/C=C(\C)[C@@H](O)[C@@H](OC)C(=O)[C@H](C)C[C@H](C)CC/C=C/C=C/1C` [Example 1, 1,2-Dihydrorapamycin], the MIC in [2] was 0.2 µg/mL (≈ 0.218 µM); in experiment [3] it was 0.4 µg/mL (≈ 0.437 µM); in [4] it was 0.2 µg/mL (≈ 0.218 µM); in [5], 0.2 µg/mL (≈ 0.218 µM); in experiment [7], > 0.4 µg/mL. Besides, in experiment [10], the “PLN Assay (ratio)” value was -1.67. In addition, the “Skin Graft Assay (days + SD)” value in experiment [8] was 7.3 ± 0.9 days.
